Columns and labels:
Experiment in all cases: Kinase panel study
Format in all cases: biochemical
Conditions in all cases: read-out: Percentage of inhibition; for inhibition at 1 µM: 1000nM; for inhibition at 10 µM: 10000nM
JAK2 JH1 JH2 V617F = biological target: T1, JAK2 JH1 JH2 V617F (Homo sapiens, UniProt O60674, V617F)
T1 construct: JAK2 JH1 JH2 V617F; purchased Thermo Fisher Scientific
Procedure, shortened: (§1)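 Percent inhibition of each kinase by the test compound, given at either 1 µM or 10 µM, came from a contracted panel run by ZLyte or Adapta protocol.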

STK22D (TSSK1) = biological target: T2, STK22D (TSSK1) (Homo sapiens, UniProt Q9BXA7)
T2 construct: purchased Thermo Fisher Scientific
T2 sequence (Q9BXA7 1-367): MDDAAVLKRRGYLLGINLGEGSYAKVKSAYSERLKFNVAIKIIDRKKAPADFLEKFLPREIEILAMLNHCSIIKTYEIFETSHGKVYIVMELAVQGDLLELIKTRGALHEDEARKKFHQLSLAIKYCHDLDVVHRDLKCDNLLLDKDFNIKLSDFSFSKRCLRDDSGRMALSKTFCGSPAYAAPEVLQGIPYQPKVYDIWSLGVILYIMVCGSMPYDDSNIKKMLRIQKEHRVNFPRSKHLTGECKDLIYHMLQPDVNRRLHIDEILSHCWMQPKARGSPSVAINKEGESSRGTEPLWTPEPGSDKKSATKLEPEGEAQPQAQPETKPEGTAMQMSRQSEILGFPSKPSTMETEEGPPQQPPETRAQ
Procedure, shortened: as §1

TYRO3 (RSE) = biological target: T3, TYRO3 (RSE) (Homo sapiens, UniProt Q06418)
T3 construct: purchased Thermo Fisher Scientific
T3 sequence (Q06418 41-890): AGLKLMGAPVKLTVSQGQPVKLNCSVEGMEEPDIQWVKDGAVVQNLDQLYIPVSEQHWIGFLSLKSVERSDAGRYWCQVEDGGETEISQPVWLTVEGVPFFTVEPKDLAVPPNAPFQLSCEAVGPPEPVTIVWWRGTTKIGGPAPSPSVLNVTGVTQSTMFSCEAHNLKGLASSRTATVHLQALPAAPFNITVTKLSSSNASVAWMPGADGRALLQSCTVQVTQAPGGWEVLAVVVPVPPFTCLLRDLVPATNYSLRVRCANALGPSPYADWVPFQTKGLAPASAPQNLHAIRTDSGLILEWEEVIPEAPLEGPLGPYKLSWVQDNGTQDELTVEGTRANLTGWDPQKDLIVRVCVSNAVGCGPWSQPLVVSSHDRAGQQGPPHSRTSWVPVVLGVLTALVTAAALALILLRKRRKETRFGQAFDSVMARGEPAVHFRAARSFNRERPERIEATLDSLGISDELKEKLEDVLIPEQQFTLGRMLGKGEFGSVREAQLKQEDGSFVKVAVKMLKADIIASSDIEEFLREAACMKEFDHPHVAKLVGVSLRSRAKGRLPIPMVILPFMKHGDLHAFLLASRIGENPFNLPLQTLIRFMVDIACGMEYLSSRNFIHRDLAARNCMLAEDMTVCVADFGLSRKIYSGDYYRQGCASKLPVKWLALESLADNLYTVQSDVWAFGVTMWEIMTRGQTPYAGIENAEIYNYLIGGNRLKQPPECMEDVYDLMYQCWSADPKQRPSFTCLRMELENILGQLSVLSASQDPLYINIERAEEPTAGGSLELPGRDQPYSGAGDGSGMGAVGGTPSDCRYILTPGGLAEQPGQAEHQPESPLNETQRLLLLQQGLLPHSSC
Procedure, shortened: as §1

CDK9/cyclin T1 = biological target: T4, CDK9/cyclin T1 (Homo sapiens, UniProt P50750)
T4 construct: purchased Thermo Fisher Scientific
T4 sequence (P50750 whole entry): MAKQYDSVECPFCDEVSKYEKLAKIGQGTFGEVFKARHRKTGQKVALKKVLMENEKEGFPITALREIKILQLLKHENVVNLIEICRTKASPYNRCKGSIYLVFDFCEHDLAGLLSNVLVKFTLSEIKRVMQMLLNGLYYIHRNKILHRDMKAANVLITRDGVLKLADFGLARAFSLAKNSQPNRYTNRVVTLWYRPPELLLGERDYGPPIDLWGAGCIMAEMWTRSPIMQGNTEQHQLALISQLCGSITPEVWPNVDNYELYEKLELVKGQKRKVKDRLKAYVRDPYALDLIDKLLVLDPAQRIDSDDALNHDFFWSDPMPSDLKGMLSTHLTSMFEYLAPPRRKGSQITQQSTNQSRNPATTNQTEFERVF
T4 sequence (O60563 whole entry partner): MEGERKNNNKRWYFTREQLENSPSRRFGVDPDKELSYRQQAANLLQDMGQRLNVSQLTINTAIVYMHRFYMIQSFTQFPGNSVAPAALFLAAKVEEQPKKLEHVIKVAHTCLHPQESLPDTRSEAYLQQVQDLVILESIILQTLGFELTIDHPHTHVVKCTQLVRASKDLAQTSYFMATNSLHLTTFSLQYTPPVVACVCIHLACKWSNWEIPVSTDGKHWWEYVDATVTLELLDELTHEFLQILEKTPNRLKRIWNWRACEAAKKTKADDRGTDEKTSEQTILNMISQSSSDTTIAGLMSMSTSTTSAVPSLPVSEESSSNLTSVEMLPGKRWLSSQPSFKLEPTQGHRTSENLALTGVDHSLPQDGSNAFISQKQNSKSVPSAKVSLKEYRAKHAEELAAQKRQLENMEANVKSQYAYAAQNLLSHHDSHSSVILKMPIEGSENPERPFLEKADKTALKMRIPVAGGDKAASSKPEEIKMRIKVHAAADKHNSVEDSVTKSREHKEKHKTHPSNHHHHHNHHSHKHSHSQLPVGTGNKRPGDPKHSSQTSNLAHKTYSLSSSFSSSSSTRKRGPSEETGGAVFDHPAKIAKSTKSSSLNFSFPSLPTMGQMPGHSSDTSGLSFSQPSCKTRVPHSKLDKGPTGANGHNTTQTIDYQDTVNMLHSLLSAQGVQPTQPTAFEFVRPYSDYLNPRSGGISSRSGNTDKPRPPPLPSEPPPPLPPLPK
Procedure, shortened: as §1

ADRBK1 (GRK2) = biological target: T5, ADRBK1 (GRK2) (Homo sapiens, UniProt P25098)
T5 construct: purchased Thermo Fisher Scientific
T5 sequence (P25098 1-689): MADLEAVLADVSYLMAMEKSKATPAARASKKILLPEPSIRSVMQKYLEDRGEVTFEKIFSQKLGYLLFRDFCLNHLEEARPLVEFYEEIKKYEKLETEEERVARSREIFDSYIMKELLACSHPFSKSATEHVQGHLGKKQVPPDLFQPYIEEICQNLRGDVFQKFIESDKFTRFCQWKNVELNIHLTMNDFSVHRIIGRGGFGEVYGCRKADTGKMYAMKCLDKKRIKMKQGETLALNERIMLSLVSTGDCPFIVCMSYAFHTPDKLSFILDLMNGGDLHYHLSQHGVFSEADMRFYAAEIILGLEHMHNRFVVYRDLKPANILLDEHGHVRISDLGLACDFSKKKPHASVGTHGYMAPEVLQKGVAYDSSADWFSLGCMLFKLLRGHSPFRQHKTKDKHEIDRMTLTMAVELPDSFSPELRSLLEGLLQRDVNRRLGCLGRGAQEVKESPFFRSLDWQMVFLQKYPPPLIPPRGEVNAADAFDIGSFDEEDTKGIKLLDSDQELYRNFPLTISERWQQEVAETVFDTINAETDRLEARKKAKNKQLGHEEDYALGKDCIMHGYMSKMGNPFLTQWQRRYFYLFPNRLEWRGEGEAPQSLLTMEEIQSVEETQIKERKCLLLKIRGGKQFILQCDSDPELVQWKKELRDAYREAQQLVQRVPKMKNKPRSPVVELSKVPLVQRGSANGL
Procedure, shortened: as §1

T1 sequence (O60674 532-1132 V617F limits assumed): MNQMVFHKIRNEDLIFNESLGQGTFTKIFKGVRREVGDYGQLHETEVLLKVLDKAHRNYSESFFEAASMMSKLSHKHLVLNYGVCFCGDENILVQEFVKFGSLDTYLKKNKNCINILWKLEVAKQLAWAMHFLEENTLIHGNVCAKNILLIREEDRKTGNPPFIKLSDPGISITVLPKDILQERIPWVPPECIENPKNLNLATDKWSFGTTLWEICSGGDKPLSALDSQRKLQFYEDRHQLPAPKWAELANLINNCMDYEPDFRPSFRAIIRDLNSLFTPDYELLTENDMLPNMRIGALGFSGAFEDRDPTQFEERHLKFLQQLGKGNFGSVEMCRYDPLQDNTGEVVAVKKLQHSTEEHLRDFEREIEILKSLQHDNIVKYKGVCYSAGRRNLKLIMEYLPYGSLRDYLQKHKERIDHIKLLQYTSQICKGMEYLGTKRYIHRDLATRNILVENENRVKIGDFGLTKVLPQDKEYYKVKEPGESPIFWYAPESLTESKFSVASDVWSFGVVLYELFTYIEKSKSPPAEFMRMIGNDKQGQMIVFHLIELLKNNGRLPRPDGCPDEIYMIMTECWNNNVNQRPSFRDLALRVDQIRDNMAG

Compound | inhibition at 1 µM (JAK2 JH1 JH2 V617F) [%] | inhibition at 10 µM (JAK2 JH1 JH2 V617F) [%] | inhibition at 1 µM (STK22D (TSSK1)) [%] | inhibition at 10 µM (STK22D (TSSK1)) [%] | inhibition at 1 µM (TYRO3 (RSE)) [%] | inhibition at 10 µM (TYRO3 (RSE)) [%] | inhibition at 1 µM (CDK9/cyclin T1) [%] | inhibition at 10 µM (CDK9/cyclin T1) [%] | inhibition at 1 µM (ADRBK1 (GRK2)) [%] | inhibition at 10 µM (ADRBK1 (GRK2)) [%]
COc1ccc2cc3c(N)nn(C(=O)c4cccc(N(C)C)c4)c3nc2c1 [MW05, (3-Amino-7-methoxypyrazolo[3,4-b]quinolin-1-yl)-[3-(dimethylamino)phenyl]methanone] | 1 | -28 | 2 | 5 | 7 | 2 | 19 | 57 | -1 | 4
COc1ccc2c(c1OC)c(=O)n1c3ccc(O)cc3c3ccnc2c31 [MW01, 5-Hydroxy-10,11-dimethoxy-9H-benzo[c]indolo[3,2,1-ij][1,5]naphthyridin-9-one] | 15 | 29 | 11 | 22 | 11 | 29 | 11 | 20 | 8 | 17

Reference: patent EP4467141A1, “PYRAZOLO-QUINOLINES AS SELECTIVE INHIBITORS OF GENOTOXIC STRESS-INDUCED IKK/NF- KB PATHWAYS FOR CANCER THERAPY” (Max-Delbrück-Centrum für Molekulare Medizin in der …, priority 2023, dated 2024)
